Measured values reported in patent EP0620225B1, “Cephalosporin derivatives” (Basilea Pharmaceutica AG, priority 1993, dated 1994).
Values after ≈ are worked out from the molar mass of the structure shown.

Assays:
Experiment in all cases: Antibacterial spectrum (MIC), agar dilution
Format in all cases: cell-based
P.mirabilis 2117 = settings: Proteus mirabilis, read-out: MIC
Description: (§1) In vitro activity was determined by minimum inhibitory concentration in a microorganism spectum by the agar dilution method in Mueller Hinton agar.

S.pyogenes B15 = settings: Streptococcus pyogenes, read-out: MIC
Description: as §1

C.freundii 43 = settings: Citrobacter freundii, read-out: MIC
Description: as §1

C.freundii 902 = settings: Citrobacter freundii, read-out: MIC
Description: as §1

E.coli 25922 = settings: Escherichia coli, read-out: MIC
Description: as §1

E.faecalis 6 = settings: Enterococcus faecalis, read-out: MIC
Description: as §1

E.cloacae 908SSi = settings: Enterobacter cloacae, read-out: MIC
Description: as §1

S.agalactiae QK44 = settings: Streptococcus agalactiae, read-out: MIC
Description: as §1

S.aureus 6538 = settings: Staphylococcus aureus, read-out: MIC
Description: as §1

E.cloacae 908R = settings: Enterobacter cloacae, read-out: MIC
Description: as §1

P.vulgaris 1028 = settings: Proteus vulgaris, read-out: MIC
Description: as §1

K.pneumoniae 418 = settings: Klebsiella pneumoniae, read-out: MIC
Description: as §1

L.monocytogenes BK23 = settings: Listeria monocytogenes, read-out: MIC
Description: as §1

N.meningitidis 69480 = settings: Neisseria meningitidis, read-out: MIC
Description: as §1

M.catarrhalis RA21 = settings: Moraxella catarrhalis, read-out: MIC
Description: as §1

Acinetobacter sp.51-156 = settings: SP.51156, read-out: MIC
Description: as §1

S.aureus 734 MRSA = settings: Staphylococcus aureus, read-out: MIC
Description: as §1

H.influenzae 1 = settings: Haemophilus influenzae, read-out: MIC
Description: as §1

M.morganii 6H-137 = settings: Morganella morganii, 6H137, read-out: MIC
Description: as §1

S.pneumoniae Q19 = settings: Streptococcus pneumoniae, read-out: MIC
Description: as §1

P.aeruginosa 27853 = settings: Pseudomonas aeruginosa, read-out: MIC
Description: as §1

S.marcescens 69438 = settings: Serratia marcescens, read-out: MIC
Description: as §1

S.viridans group 016 = settings: Streptococcus viridans, read-out: MIC
Description: as §1

X.maltophilia 1AC739 = settings: Stenotrophomonas maltophilia, read-out: MIC
Description: as §1

Row | MIC (P.mirabilis 2117) [µg/mL] | MIC (S.pyogenes B15) [µg/mL] | MIC (C.freundii 43) [µg/mL] | MIC (C.freundii 902) [µg/mL] | MIC (E.coli 25922) [µg/mL] | MIC (E.faecalis 6) [µg/mL] | MIC (E.cloacae 908SSi) [µg/mL] | MIC (S.agalactiae QK44) [µg/mL] | MIC (S.aureus 6538) [µg/mL] | MIC (E.cloacae 908R) [µg/mL] | MIC (P.vulgaris 1028) [µg/mL] | MIC (K.pneumoniae 418) [µg/mL] | MIC (L.monocytogenes BK23) [µg/mL] | MIC (N.meningitidis 69480) [µg/mL] | MIC (M.catarrhalis RA21) [µg/mL] | MIC (Acinetobacter sp.51-156) [µg/mL] | MIC (S.aureus 734 MRSA) [µg/mL] | MIC (H.influenzae 1) [µg/mL] | MIC (M.morganii 6H-137) [µg/mL] | MIC (S.pneumoniae Q19) [µg/mL] | SMILES | also measured
1 | ≤ 0.06 | ≤ 0.06 | 4 (≈ 7.71 µM) | 0.12 (≈ 0.231 µM) | ≤ 0.06 | 1 (≈ 1.93 µM) | 1 (≈ 1.93 µM) | 0.5 (≈ 0.964 µM) | 0.5 (≈ 0.964 µM) | 8 (≈ 15.4 µM) | 0.25 (≈ 0.482 µM) | 0.12 (≈ 0.231 µM) | 4 (≈ 7.71 µM) | 0.25 (≈ 0.482 µM) | 8 (≈ 15.4 µM) | 16 (≈ 30.9 µM) | 8 (≈ 15.4 µM) | 0.25 (≈ 0.482 µM) | ≤ 0.06 | ≤ 0.06 | Nc1nc(/C(=N/O)C(=O)N[C@@H]2C(=O)N3C(C(=O)O)=C(/C=C4\CCN(CC5CC5)C4=O)CS[C@H]23)cs1 [N, [6R-[3(E),6α,7β(Z)]]-7-[[(2-Amino-4-thiazolyl)(hydroxyimino)acetyl]-amino]-3-[[1-cyclopropylmethyl-2-oxo-3-pyrrolidinylidene]methyl]-8-oxo-5-thia-1-azabicyclo[4.2.0]oct-2-ene-2-carboxylic acid] | MIC (P.aeruginosa 27853): 16 µg/mL (≈ 30.9 µM); MIC (S.marcescens 69438): 0.5 µg/mL (≈ 0.964 µM); MIC (S.viridans group 016): 1 µg/mL (≈ 1.93 µM); MIC (X.maltophilia 1AC739): > 32 µg/mL
2 | ≤ 0.06 | ≤ 0.06 | 4 (≈ 7.96 µM) | 0.12 (≈ 0.239 µM) | ≤ 0.06 | 2 (≈ 3.98 µM) | 1 (≈ 1.99 µM) | 0.25 (≈ 0.497 µM) | 1 (≈ 1.99 µM) | 16 (≈ 31.8 µM) | 8 (≈ 15.9 µM) | 0.12 (≈ 0.239 µM) | 2 (≈ 3.98 µM) | 0.25 (≈ 0.497 µM) | 4 (≈ 7.96 µM) | 16 (≈ 31.8 µM) | 4 (≈ 7.96 µM) | 0.25 (≈ 0.497 µM) | ≤ 0.06 | ≤ 0.06 | C#CCN1CC/C(=C\C2=C(C(=O)O)N3C(=O)[C@@H](NC(=O)/C(=N\O)c4csc(N)n4)[C@H]3SC2)C1=O [O, [6R-[3(E),6α,7β(Z)]]-7-[[(2-Amino-4-thiazolyl)(hydroxyimino)acetyl]-amino]-8-oxo-3-[[2-oxo-1-(2-propynyl)-3-pyrrolidinylidene]methyl]-5-thia-1-azabicyclo [4.2.0]-oct-2-ene-2-carboxylic acid] | MIC (P.aeruginosa 27853): 8 µg/mL (≈ 15.9 µM); MIC (S.marcescens 69438): 1 µg/mL (≈ 1.99 µM); MIC (S.viridans group 016): 0.5 µg/mL (≈ 0.995 µM); MIC (X.maltophilia 1AC739): > 32 µg/mL
3 | 0.12 (≈ 0.221 µM) | ≤ 0.06 | 2 (≈ 3.69 µM) | 0.12 (≈ 0.221 µM) | ≤ 0.06 | 0.5 (≈ 0.922 µM) | 0.25 (≈ 0.461 µM) | 0.5 (≈ 0.922 µM) | 0.5 (≈ 0.922 µM) | 8 (≈ 14.7 µM) | 4 (≈ 7.37 µM) | 0.25 (≈ 0.461 µM) | 4 (≈ 7.37 µM) | 0.5 (≈ 0.922 µM) | 8 (≈ 14.7 µM) | 32 (≈ 59 µM) | 8 (≈ 14.7 µM) | 0.5 (≈ 0.922 µM) | ≤ 0.06 | 0.12 (≈ 0.221 µM) | Nc1nc(/C(=N/O)C(=O)N[C@@H]2C(=O)N3C(C(=O)O)=C(/C=C4\CCN(c5cnccn5)C4=O)CS[C@H]23)cs1 [P] | MIC (P.aeruginosa 27853): 8 µg/mL (≈ 14.7 µM); MIC (S.marcescens 69438): 4 µg/mL (≈ 7.37 µM); MIC (S.viridans group 016): 1 µg/mL (≈ 1.84 µM); MIC (X.maltophilia 1AC739): > 32 µg/mL
